Laboratory results from the NIST ThermoML archive (doi:10.1021/je100078w).

How the values were obtained:
[1] = Liquid
[2] = wn = mass fraction of the nth substance listed; details: 101 kPa, Liquid

F[B-](F)(F)F.[NH3+]CCO [2-hydroxyethanaminium tetrafluoroborate]
[1], 101.33 kPa
Details	mass density [kg/m3]
303.15 K	1490.57
313.15 K	1482.62
323.15 K	1474.94
333.15 K	1467.85
343.15 K	1464.59

[1], 101.33 kPa, Concentric cylinders viscometry
Details	viscosity [mPa·s]
303.15 K	59.39
313.15 K	48.68
333.15 K	32.85
343.15 K	27.84

F[B-](F)(F)F.[NH3+]CCO [2-hydroxyethanaminium tetrafluoroborate] + O
[2], w1 = 0.3004
Details	mass density [kg/m3]	viscosity [mPa·s]
303.15 K	1116.48	1.007
313.15 K	1110.85	0.8573
323.15 K	1104.95	0.7412
333.15 K	1098.99	0.6743
343.15 K	1093.41	0.5896

CN(CCO)CCO [N-methyldiethanolamine]
[1], 101.33 kPa
Details	mass density [kg/m3]
303.15 K	1033.74
313.15 K	1026.72
323.15 K	1019.48
333.15 K	1012.32
343.15 K	1002.25

[1], 101.33 kPa, Concentric cylinders viscometry
Details	viscosity [mPa·s]
303.15 K	57.69
313.15 K	34.79
323.15 K	21.88
333.15 K	14.6
343.15 K	9.855

CN(CCO)CCO [N-methyldiethanolamine] + O
[2], w1 = 0.3002
Details	mass density [kg/m3]	viscosity [mPa·s]
303.15 K	1022.9	2.612
313.15 K	1018	1.937
323.15 K	1012.96	1.505
333.15 K	1006.92	1.207
343.15 K	–	0.8944

OCCN(CCO)CCO [triethanolamine]
[1], 101 kPa
Details	mass density [kg/m3]	viscosity [mPa·s]
303.15 K	1114.43	398.2
313.15 K	1108.34	195.9
323.15 K	1102.23	103.6
333.15 K	1095.96	60.81
343.15 K	1089.6	37.94

OCCN(CCO)CCO [triethanolamine] + CCCCn1cc[n+](C)c1.F[B-](F)(F)F
[2]
Details	mass density, 303.15 K [kg/m3]	mass density, 313.15 K [kg/m3]	mass density, 323.15 K [kg/m3]	mass density, 333.15 K [kg/m3]	mass density, 343.15 K [kg/m3]	viscosity, 303.15 K [mPa·s]	viscosity, 313.15 K [mPa·s]	viscosity, 323.15 K [mPa·s]	viscosity, 333.15 K [mPa·s]	viscosity, 343.15 K [mPa·s]
w1 = 0.1998	1175.8	1168.63	1161.5	1154.44	1147.42	57.94	35.89	24.02	17.13	12.82
w1 = 0.3987	1161.1	1154.41	1146.93	1139.88	1132.87	69.54	39.71	25.08	17.08	12.32
w1 = 0.5005	1150.08	1142.89	1135.48	1128.12	1120.99	86.62	47.22	28.82	19.11	13.48
w1 = 0.6	1146.42	1139.61	1132.76	1125.89	1119	116.5	60.67	36.1	23.35	16.14
w1 = 0.7999	1129.56	1123.21	1116.73	1110.16	1103.54	186.3	99.43	54.02	33.63	22.33
w1 = 1	1114.43	1108.34	1102.23	1095.96	1089.6	398.2	195.9	103.6	60.81	37.94

OCCN(CCO)CCO [triethanolamine] + O
[2], w1 = 0.3
Details	mass density [kg/m3]	viscosity [mPa·s]
303.15 K	1042.75	2.354
313.15 K	1037.93	1.799
323.15 K	1032.21	1.425
333.15 K	1023.74	1.172
343.15 K	1011.68	0.9591
